This note sets out measurements from patent US7776833B2, “Use of cyclic bioisosters of purine system derivatives for treating diseases produced by disorders of niterergic and dopaminergic systems” (priority 2003, dated 2010).

What all share (type): in vivo, Wistar rats
Assay [1] deals with physical dependence from morphine (morphine abstinence). Description: Morphine abstinence syndrome, signs scored in the open field test. How it is done:
Thirty six hours after the last injection selected motor and autonomice parameters which are specific symptoms of abstinence were monitored in the <<open field>> test (an arena with a diameter of 120 cm and wall height of 40 cm).
Med., 2002, V.29, p.1-6.). The observable signs were recorded quantitatively (if it was possible) with further assignment of an index to each sign (depending on the specific feature of the sign) and calculation of the sum of scores. The expression of the abstinence syndrome was presented as a sum of scores. The results were processed using nonparametric statistical analysis based on the Mann-Whitney test.

Assay [2] relates to nitrites and nitrates (NOx-). Description: Measurement of nitrates/nitrites (NOx-) in brain regions after the morphine abstinence experiment. How it is done:
(§1) After the above experiments the rat brains were isolated and immediately placed in the ice cold 0.9% solution of sodium chloride. After cooling the following structures were isolated from the brain: cerebral cortex, hippocampus, mesencephalon, striatum, brainstem, hypothalamus and cerebellum. The isolated tissue was homogenized in a Potter S homogenizer for 3 minutes at 1500 rpm in 4-5 volumes of 20 mM HEPES (pH 7.5) at 4° C. The supernatants were centrifuged for 30 minutes at 11000 g at 4° C., and aliquots of the obtained supernatants were taken for determining nitrates and nitrites (NOx-), while the remaining part was mixed with cooled 20 mM of HEPES (pH 7.5), containing 0.5 mM ethylenediamine tetraacetate (EDTA), 1 mM dithiotreitol (DDT), 1 mM phenylmethylsulfonyl fluoride (PMSF), aprotinine and leupeptine at a concentration of 5 μg/ml, this mixture being used for determining nitric oxide synthase (NOS) activity.
To estimate the intensity of metabolism of nitric oxide in rats, quantitative determination of stable metabolites of nitrogen oxide-nitrites and nitrates (NOx-) was performed using a fluorometric method by fluorescence of naphthotriazole, a product of reaction of 2,3- diaminonaphthalene (DAN) and nitrite in an acidic medium (Misko T. R., Schilling R. J., Salvemini D. et al. A fluorometric assay for the measurement of nitrite in biological samples. Anal. Biochem., 1993, V. 214, p.11-16) with modifications (Lei B., Adachi N., Nagaro T., Arai T. Measurement of total nitric oxide metabolite (NO (x) (-)) levels in vivo. Brain. Res. Protoc., 1999, V. 4, p. 415-419).
The supernatants of brain deproteinized at 100° C. were placed in a nitrite recovery system containing 0.125 unit/ml of nitrate reductase, 25 μM NADPH and 25 μM FAD prepared in 20 mM Tris-HCl buffer pH 7.6 and incubated for 30 minutes at 37° C. For oxidation of NADPH a lactate dehydrogenase (LDH)/pyruvate system was used. Then 316.0 μM DAN solution in 0.62 M HCl was added and the mixture was incubated for 10 minutes in dark. For stabilization of fluorescence of the formed naphthotriazole, 280 mM NaOH was added. The fluorescence intensity was measured using spectrofluorometer Hitachi F-3000 at a wavelength of excitation 365 nm and emission 405 nm. To calculate the concentration of NOx- in the brain a standard solution of sodium nitrate was used. The concentration of NOx- was expressed in nmol/mg of protein.
(§2) The content of protein in the samples was determined by the Bradford method (Bradford M. M. A rapid and sensitive method for quantitation of microgram quantities of protein using the principle of protein binding . Anal. Biochem., 1976, V. 72, p. 248-254) using Coumassi dye. The statistical analysis was performed using methods appropriate for respective experiments. The data are expressed as mean±standard error of mean.

The subject of assay [3] is nitric oxide synthase (NOS). In words: Nitric oxide synthase activity in brain regions, radiometric [3H]L-citrulline method. Particulars: 3 x 20 mg/kg intramuscularly. Here is the method:
as §1
The activity of nitric oxide synthase (NOS) was determined using a radiometric method by the rate of L-citrulline accumulation in a reaction of [^3H] L-arginine oxidation catalyzed by NOS (Bredt M., Snyder S. Nitric oxide mediates glutamate-linked enhancement of cGMP levels in the cerebellum. Proc. Natl. Acad. Sci., USA, 1989, V.86, p.9030-9033). The formation of L-citrulline in this reaction is equivalent to a biosynthesis of nitric oxide.
The reaction was initiated by adding brain supernatant in the reaction medium containing 2 μCi/ml of [3H] L-arginine, 20 mM HEPES (pH 7.4), 0.2 mM CaCl2, 5 μM FAD, 5 μM FMN, 1 mM NADPH, 50 μM of BH4. After 15-60 minutes of incubation at 37° C. a suspension of Dowex 50WX8-400 (Na^+-form), which sorbs unreacted [^3H]L-arginine, but not [^3H] L-citrulline was added to the samples. After the sorption the radioactivity of the samples was determined on a scintillation counter SL-4000 (“Intertechnique”). The activity of Ca^2+-dependent and Ca^2+-independent NOS isoforms was determined by the difference of rates of [^3H]L-citrulline formation in three parallel samples containing 2 mM EDTA (Ca^2+ chelator), 2 mM EDTA+2 mM L-NAME (inhibitor all NOS isoforms) or without inhibitors. The enzyme activity was expressed in rnol [^3H]L-citrulline acumulated per 1 minute on 1 mg of supernatant protein.
as §2

[4] abbreviates: Morphine − (morphine + compound), compound 3 x 20 mg/kg intramuscularly, one value for the three compounds.
Where [5] appears, read: Groups Nos. 3-14, compound without morphine, 3 x 20 mg/kg intramuscularly, one value for all 12 compounds.
Setting [6] is: Morphine + compound, 3 x 20 mg/kg intramuscularly, one value for the three compounds.
Where [7] appears, read: Groups Nos. 3-14, compound without morphine, one value for all 12 compounds.
[8] abbreviates: Morphine + compound, one value for the three compounds.
The mark [9] stands for this setting: Control − morphine, open field, 36 h after last morphine injection.

With `O=c1[nH]n([C@@H]2O[C@H](CO)[C@@H](O)[C@H]2O)c(=O)c2ncccc12.[Na]` [Compound 1, sodium salt of 7-(β-D-ribofuranosile)pyrido[2,3-d]-6H-pyridazine-5,8-dione], in assay [1] (setting [4]), the “Authentic differences (ξ-square criterion) in appearance of signs of abstinence: <<Wet dog>> shakes” value came out at 1.0000, the “Authentic differences (ξ-square criterion) in appearance of signs of abstinence: Aggression” value is recorded as 0.8327, the “Authentic differences (ξ-square criterion) in appearance of signs of abstinence: Convulsions” value is 0.7821 and the “Authentic differences (ξ-square criterion) in appearance of signs of abstinence: Diarrhea” value stood at 0.0046. Also, in assay [1] (setting [4]), the “Authentic differences (ξ-square criterion) in appearance of signs of abstinence: Dyspnea” value turned out to be 0.0722, the “Authentic differences (ξ-square criterion) in appearance of signs of abstinence: Forelimb jogging” value stood at 0.7821, the “Authentic differences (ξ-square criterion) in appearance of signs of abstinence: Grit with teeth” value was 0.7144 and the “Authentic differences (ξ-square criterion) in appearance of signs of abstinence: Mastication” value was 0.1888. Also, in assay [1] (setting [4]), the “Authentic differences (ξ-square criterion) in appearance of signs of abstinence: Piloerection” value is listed as 0.1847, the “Authentic differences (ξ-square criterion) in appearance of signs of abstinence: Ptosis” value came to 0.0201, the “Authentic differences (ξ-square criterion) in appearance of signs of abstinence: Rhinorrhea” value came to 0.3017 and the “Authentic differences (ξ-square criterion) in appearance of signs of abstinence: Squeak when touched” value stood at 0.1888. In assay [2] (setting [5]), the “Nitrites, brainstem” value was 6.31 ± 0.58 nmol/mg of protein; the “Nitrites, cerebellum” value is listed as 6.66 ± 0.63 nmol/mg of protein; the “Nitrites, cerebral cortex” value is given as 4.31 ± 0.37 nmol/mg of protein; the “Nitrites, hippocampus” value is on record as 6.47 ± 0.72 nmol/mg of protein. For the same compound, in assay [2] (setting [5]), the “Nitrites, hypothalamus” value is recorded as 6.77 ± 0.83 nmol/mg of protein; the “Nitrites, midbrain” value is 6.65 ± 0.70 nmol/mg of protein; the “Nitrites, striatum” value is 6.11 ± 0.29 nmol/mg of protein. In assay [2] (setting [6]), the “Nitrites, brainstem” value was 6.57 ± 0.72 nmol/mg of protein; the “Nitrites, cerebellum” value is reported as 5.46 ± 0.44 nmol/mg of protein; the “Nitrites, cerebral cortex” value was 4.72 ± 0.37 nmol/mg of protein; the “Nitrites, hippocampus” value was 5.44 ± 0.43 nmol/mg of protein. For the same compound, in assay [2] (setting [6]), the “Nitrites, hypothalamus” value is 6.57 ± 0.88 nmol/mg of protein; the “Nitrites, midbrain” value was 5.50 ± 0.48 nmol/mg of protein; the “Nitrites, striatum” value is 3.57 ± 0.42 nmol/mg of protein. Moreover, in assay [3] (setting [7]), the “Activity of NOS, hippocampus” value was 3.09 ± 0.16 nmol/min/mg of protein; the “Activity of NOS, hypothalamus” value was 5.45 ± 0.24 nmol/min/mg of protein; the “Activity of NOS, midbrain” value was 2.60 ± 0.29 nmol/min/mg of protein; the “Activity of NOS, striatum” value is given as 1.26 ± 0.08 nmol/min/mg of protein. Moreover, in assay [3] (setting [8]), the “Activity of NOS, hippocampus” value was 2.70 ± 0.14 nmol/min/mg of protein; the “Activity of NOS, hypothalamus” value was 5.26 ± 0.28 nmol/min/mg of protein; the “Activity of NOS, midbrain” value is reported as 1.83 ± 0.23 nmol/min/mg of protein; the “Activity of NOS, striatum” value is 1.24 ± 0.08 nmol/min/mg of protein.
For `CN1CC[C@]23c4c5ccc(O)c4O[C@H]2[C@@H](O)C=C[C@H]3[C@H]1C5.Cl` [morphine, morphine hydrochloride, reference compound], in assay [1] (setting [9]), the “Authentic differences (ξ-square criterion) in appearance of signs of abstinence: <<Wet dog>> shakes” value turned out to be 0.0002, the “Authentic differences (ξ-square criterion) in appearance of signs of abstinence: Aggression” value is recorded as 0.5770, the “Authentic differences (ξ-square criterion) in appearance of signs of abstinence: Convulsions” value was determined as 0.0507 and the “Authentic differences (ξ-square criterion) in appearance of signs of abstinence: Diarrhea” value is on record as 0.0075. Moreover, in assay [1] (setting [9]), the “Authentic differences (ξ-square criterion) in appearance of signs of abstinence: Dyspnea” value is recorded as 0.0053, the “Authentic differences (ξ-square criterion) in appearance of signs of abstinence: Forelimb jogging” value is on record as 0.0180, the “Authentic differences (ξ-square criterion) in appearance of signs of abstinence: Grit with teeth” value was found to be 0.1266 and the “Authentic differences (ξ-square criterion) in appearance of signs of abstinence: Piloerection” value is on record as 0.5770. Further, in assay [1] (setting [9]), the “Authentic differences (ξ-square criterion) in appearance of signs of abstinence: Ptosis” value was 0.0053, the “Authentic differences (ξ-square criterion) in appearance of signs of abstinence: Rhinorrhea” value came to 0.2994 and the “Authentic differences (ξ-square criterion) in appearance of signs of abstinence: Squeak when touched” value was determined as 0.0053. Moreover, in assay [2] (Group No. 2 (morphine)), the “Nitrites, cerebellum” value was 6.07 ± 0.42 nmol/mg of protein; the “Nitrites, hippocampus” value is 6.45 ± 0.69 nmol/mg of protein; the “Nitrites, hypothalamus” value was 4.62 ± 0.71 nmol/mg of protein.
